Data set [1] in a line: Ex vivo SPECT-CT imaging and radioactivity measurements (gamma spectroscopy) of dissected cochleae and body tissues. The data set is classed as in vivo, CBA/CaJ mice. On the procedure:
For further confirmation, a pair of cochleae from a single mouse were dissected and ex vivo measurements (SPECT-CT image and radioactivity measurements-gamma spectroscopy) were carried out. […] Mean intensity and total photons were calculated from both the cochleae SPECT images. […] Moreover, energy spectra were measured using a BioDEx ion chamber and both cochleae had the same spectra, with the peak energy around 68 KeV—same as ^201Tl energy peak (FIG. 6e). These ex vivo measurements further confirm the equal distribution of ^201Tl for both inner ears.
In addition, the radiation signal was measured from various body parts, in comparison to the cochlea. The measurements were calculated per gm of tissue (specific activity) to make comparisons among various tissues and specific activities were further normalized with brain specific activity.
At the end of the imaging session, animals were sacrificed and ex vivo experiments were carried out in which radiation signals were measured from various body regions, including the brain and cochlea. A pair of cochleae were dissected and ex vivo measurements were done using both SPECT-CT imaging as well as radioactivity measurements (BioDex 500 ion chamber; gamma spectroscopy). Images were reconstructed from SPECT-CT data as per the same algorithms and protocols used for the in-vivo experiments.

The nature of data set [2]: In vivo SPECT-CT imaging after intravenous tail vein injection of 201Tl. Details: species or system CBA/CaJ mice. On the procedure:
To test whether or not 201Tl can pass through the cochlear intrastrial fluid blood barrier, so as to image K^+ in a bony structure like the cochlea using SPECT techniques, in vivo experiments were performed with CBA/CaJ mice. Young adult mice were injected with TlCl radioactive solution intravenously with a dose of ˜400 μCi/animal in the tail vein. The Siemens Inveon® multimodality microPET/SPECT/CT platform was used (mouse brain pinhole collimator with a total of 12 projections) to image the brain, cochlea and whole body. CT imaging was also carried out for anatomical referencing. […] One animal was imaged for five continuous days, and as expected, the SPECT signal decreased over that time period in the cochlea and other body parts.
The region of interest (ROI) was drawn for the cochlea using anatomical images from the CT scans. Similarly, radiation signals (mean image intensity) from the two sides (left and right cochleae) were equal (FIG. 4b), indicating symmetrical absorption of the ^201Tl for the peripheral auditory system (cochlea). […] This observation (^201Tl maximum accumulation in the kidney) was consistent with the reported literature as ^201Tl is known to maximally accumulate there 17,18
After baseline phantom in vitro experiments were completed, in vivo imaging experiments were conducted using young adult CBA/CaJ mice (2-3 months old, n=6, 3 females and 3 males) to determine whether 201Tl can pass through the cochlear intrastrial fluid/blood barrier and if the bony cochlea can be imaged using SPECT. Each mouse was injected with approximately 400 μCi ^201Tl radiation into tail veins through a catheter. Similar to the in vitro phantom experiments, a total of 12 projections over a 360 arc were used to collect the images. During the imaging data collection, animals were under gas anesthesia (1-2% isoflurane) in an air-warmed imaging chamber (Harvard Apparatus, Cambridge, MA) to keep body temperature constant at 37° C., and the breathing rate and pattern were continuously monitored. For anatomical referencing of the cochlea, CT imaging was also conducted in conjunction with SPECT. The region of Interest (ROI) was drawn with the help of the CT referencing. Images were reconstructed using maximum-likely-hood expectation maximization (MLEM) algorithm, and finally, 3-D images were reconstructed with scattering and attenuation corrections.

This note sets out measurements from US12433549B1, “Molecular imaging of the cochlea” (University of South Florida, priority 2023, dated 2025).

Molecules are shown by their SMILES.

With `[Cl][201Tl]` [^201Tl, Thallium-201], the “Mean intensity and total photons, cochlea 1 vs cochlea 2” value in data set [1] (ex vivo SPECT-CT of a dissected pair of cochleae from a single mouse) is “no quantitative difference”. The “Specific activity (per gm of tissue, normalized to brain) of the cochlea compared with other body parts” value in data set [1] (ex vivo radioactivity measurements) is “highest signal among most body parts, except kidney”. Further, in data set [1] (ex vivo, gamma spectroscopy of body tissues), the “Cochlear radioactivity signal relative to brain” value is 2.2 times. Besides, the “Sex difference in cochlear SPECT signal (mean image intensity)” value in data set [2] (3 males vs 3 females) is given as “no sex difference”. Also, in data set [2] (first scan after i.v. injection), the “Time after injection at which SPECT radiation signals were observed from the cochlea” value is recorded as “within minutes”. Further, the “Radiation signals (mean image intensity), left vs right cochleae” value in data set [2] (in vivo SPECT) is given as “equal”. Moreover, the “Average cochlear SPECT signal relative to brain signal” value in data set [2] (in vivo SPECT, ROI drawn with CT, ~400 μCi/animal i.v. tail vein) is recorded as “about two”. For the same compound, the “Entry of the radiotracer into the bony cochlea” value in data set [2] (in vivo SPECT-CT of mouse cochlea) is recorded as “can enter the bony cochlea”. In addition, the “Change of SPECT signal in the cochlea and other body parts over time” value in data set [2] (one animal imaged for five continuous days) was “decreased”. Moreover, the “Site of maximum accumulation, whole body SPECT imaging” value in data set [2] (whole body SPECT, ~400 μCi/animal i.v.) is “kidney”.
